Patent US20240209028A1, “CNP COMPOUNDS” (priority 2022, published 2024)
Starred links: 1 amine or outer side, 2 acyl side, 3 side chain; linkers in the order of their positions; H or OH if unused. Positions of bridges follow the written chain, without caps; N, C: chain ends. Residues, ends and D or L forms follow the SMILES beside them. *: point of attachment. C18 diacid = O=C(O)CCCCCCCCCCCCCCCCC(=O)*; γGlu = O=C(O)[C@H](CCC(=O)[*:2])N[*:1]; AEEA = NCCOCCOCC(=O)O

Molecular target: T1, human natriuretic peptide receptor 2 (hNPR2) (Homo sapiens, UniProt P20594)
T1 construct: expressed in transfected cells; host or cells: HEK293 (ATCC CRL-1573), clone 35, co-transfected with pGloSensor-42F
T1 sequence (P20594 23-1047): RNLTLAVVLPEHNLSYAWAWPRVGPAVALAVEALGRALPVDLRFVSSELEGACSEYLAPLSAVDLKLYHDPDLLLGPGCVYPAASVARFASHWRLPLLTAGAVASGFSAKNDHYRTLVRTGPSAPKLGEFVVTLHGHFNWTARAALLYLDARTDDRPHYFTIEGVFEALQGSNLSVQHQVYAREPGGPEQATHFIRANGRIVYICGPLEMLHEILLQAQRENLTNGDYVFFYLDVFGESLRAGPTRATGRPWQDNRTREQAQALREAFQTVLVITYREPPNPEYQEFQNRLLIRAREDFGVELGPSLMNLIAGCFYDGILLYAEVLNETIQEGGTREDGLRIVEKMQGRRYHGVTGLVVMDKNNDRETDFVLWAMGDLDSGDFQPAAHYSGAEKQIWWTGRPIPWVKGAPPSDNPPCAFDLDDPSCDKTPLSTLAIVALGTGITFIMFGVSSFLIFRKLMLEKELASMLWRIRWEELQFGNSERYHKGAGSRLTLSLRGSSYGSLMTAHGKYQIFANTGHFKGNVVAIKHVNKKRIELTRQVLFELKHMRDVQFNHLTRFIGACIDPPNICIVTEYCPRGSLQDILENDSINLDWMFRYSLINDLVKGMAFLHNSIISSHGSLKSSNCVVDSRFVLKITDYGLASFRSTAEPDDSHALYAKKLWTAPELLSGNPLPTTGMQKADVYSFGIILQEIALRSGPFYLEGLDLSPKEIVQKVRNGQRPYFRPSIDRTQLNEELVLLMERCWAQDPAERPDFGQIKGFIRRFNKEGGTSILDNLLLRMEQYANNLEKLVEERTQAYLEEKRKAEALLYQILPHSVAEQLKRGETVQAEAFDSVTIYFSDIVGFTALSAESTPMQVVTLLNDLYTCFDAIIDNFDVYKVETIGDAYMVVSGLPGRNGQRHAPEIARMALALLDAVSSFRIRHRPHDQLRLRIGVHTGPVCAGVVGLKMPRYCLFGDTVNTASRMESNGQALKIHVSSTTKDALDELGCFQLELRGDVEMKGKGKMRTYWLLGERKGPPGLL
Experiment: In vitro hNPR2 activity assay (cGMP GloSensor reporter, HEK293)
Assay type: cell-based
Conditions: for EC50: 0% HSA, HEK293-hNPR2/GloSensor cells; for hNPR2 0% HSA. [EC50% rel CNP]: potency relative to CNP22 (0065)
Description: To evaluate the in vitro activity of CNP22 (0065; Chem. 1) and CNP compounds of the invention, they were tested for their ability to induce production of cyclic guanosine monophosphate (cGMP) in reporter cells expressing the human natriuretic peptide receptor 2 (hNPR2).
Cell culture: To produce the reporter cell line, HEK293 (ATCC® CRL-1573™) cells were stably transfected with the pGloSensor-42F reporter plasmid (GloSensor cGMP reporter—luciferase, Promega) and an expression plasmid encoding the hNPR2 receptor. A single cell clone was isolated for the reporter cell line. When reporter cells are exposed to an hNPR2 activating compound, hNPR2 cause production of cGMP. […] Active GloSensor luciferase is able to convert luciferin to oxyluciferin, a process that produces bioluminescence. Upon cell lysis and supply of luciferase substrate, luciferase activity can be quantified by detection of luminescence. Therefore, addition of an hNPR2 activating compound and subsequent addition of detection reagent to reporter cells causes generation of luminescence in a dose dependent manner. […] This measure, also referred to as in vitro potency, is reported for all compounds tested. In all the in vitro activity experiments, CNP22 was used as a positive in-plate control for hNPR2 activation. To reduce inter-assay variation, we also report the potency of each compound relative to the potency of the CNP22 control on each plate.
Procedure: HEK293-hNPR2/GloSensor clone 35 cells were continuously cultured in selection medium (DMEM containing 10% FCS, 1% P/S, 200 μg/mL G418 and 100 μg/mL hygromycin). To perform the assay, cells were detached with TrypLE Express (Gibco #12604013), put through a 70 μm cell strainer, counted and seeded in 30 μL/well assay medium (DMEM without phenol red and with 1% P/S) at 10,000 cells/well in white 384-well plates (Perkin Elmer #6007680) overnight. The following day, test compounds were serial diluted in dilution medium (DMEM without phenol red containing 1% OVA (Sigma #A5505 lot 04M7001V), 0.01% Tween20 (Roche #33766700) and 1% P/S) and 10 μL/well of diluted test compounds were subsequently added to the cells. For each compound, ten different concentrations in the range 0.25 μM-10 μM were tested. After 30 min of incubation at 37° C. and 5% CO2, 40 μL/well Bright-Glo detection reagent (Promega #E2650) was added. […] To determine the in vitro potency or EC50 of each test compound, a four parameter logistic regression was done on the raw data for each test compound using the Python package SciPy optimize. The average EC50 values are listed as “hNPR2 0% HSA. [EC50 (nM)]” in Table 2. A relative potency was calculated by the following expression: EC50 (CNP22 in-plate control)/EC50 (test compound)*100, shown as “hNPR2 0% HSA. [EC50% rel CNP]” in Table 2. A minimum of two replicates was measured for each test compound.

| EC50 | SMILES | hNPR2 0% HSA. [EC50% rel CNP] |
| --- | --- | --- |
| 3.4 nM | CC[C@H](C)[C@@H]1NC(=O)[C@H](CCCNC(=N)N)NC(=O)[C@H](CC(=O)O)NC(=O)[C@H](CC(C)C)NC(=O)[C@H](CCCCN)NC(=O)[C@H](CC(C)C)NC(=O)CNC(=O)[C@H](Cc2ccccc2)NC(=O)[C@@H](NC(=O)CNC(=O)[C@H](CCCCN)NC(=O)[C@H](CO)NC(=O)[C@H](CC(C)C)NC(=O)CNC(=O)[C@H](CCCCN)NC(=O)[C@H](CCC(=O)O)NC(=O)[C@H](CCC(N)=O)NC(=O)[C@H](C)NC(=O)CNC(=O)[C@H](Cc2c[nH]cn2)NC(=O)[C@H](CCC(=O)O)NC(=O)COCCOCCNC(=O)COCCOCCNC(=O)CC[C@H](NC(=O)CCCCCCCCCCCCCCCCC(=O)O)C(=O)O)CSSC[C@@H](C(=O)O)NC(=O)CNC(=O)[C@H](CC(C)C)NC(=O)CNC(=O)[C@H](CO)NC(=O)[C@H](CC(C)C)NC(=O)[C@H](CO)NC(=O)CNC1=O [compound 1236] ({C18 diacid-γGlu-AEEA-AEEA}-EHGAQEKGLSKGCFGLKLDRIGSLSGLGC-OH; disulfide 13-29; C-terminus assumed) | 6.1% |
| 1.95 nM | CC[C@H](C)[C@@H]1NC(=O)[C@H](CCCNC(=N)N)NC(=O)[C@H](CC(=O)O)NC(=O)[C@H](CC(C)C)NC(=O)[C@H](CCCCN)NC(=O)[C@H](CC(C)C)NC(=O)CNC(=O)[C@H](Cc2ccccc2)NC(=O)[C@@H](NC(=O)CNC(=O)[C@H](CCCCN)NC(=O)[C@H](CO)NC(=O)[C@H](CC(C)C)NC(=O)CNC(=O)[C@H](CCCCN)NC(=O)[C@H](CCC(=O)O)NC(=O)[C@H](CCC(N)=O)NC(=O)[C@H](C)NC(=O)CNC(=O)[C@H](Cc2c[nH]cn2)NC(=O)[C@H](Cc2ccc(O)cc2)NC(=O)COCCOCCNC(=O)COCCOCCNC(=O)CC[C@H](NC(=O)CCCCCCCCCCCCCCCCC(=O)O)C(=O)O)CSSC[C@@H](C(=O)O)NC(=O)CNC(=O)[C@H](CC(C)C)NC(=O)CNC(=O)[C@H](CO)NC(=O)[C@H](CC(C)C)NC(=O)[C@H](CO)NC(=O)CNC1=O [compound 1237] ({C18 diacid-γGlu-AEEA-AEEA}-YHGAQEKGLSKGCFGLKLDRIGSLSGLGC-OH; disulfide 13-29) | 11.8% |
|  | CC[C@H](C)[C@@H]1NC(=O)[C@H](CCCNC(=N)N)NC(=O)[C@H](CC(=O)O)NC(=O)[C@H](CC(C)C)NC(=O)[C@@H]2CCCN2C(=O)[C@H](CC(C)C)NC(=O)CNC(=O)[C@H](Cc2ccccc2)NC(=O)[C@@H](NC(=O)CNC(=O)[C@H](CCCCN)NC(=O)[C@H](CO)NC(=O)[C@H](CC(C)C)NC(=O)CNC(=O)[C@H](CCCCN)NC(=O)[C@H](CCC(=O)O)NC(=O)[C@H](CCC(N)=O)NC(=O)[C@H](C)NC(=O)CNC(=O)[C@H](Cc2c[nH]cn2)NC(=O)[C@H](Cc2ccc(O)cc2)NC(=O)COCCOCCNC(=O)COCCOCCNC(=O)CC[C@H](NC(=O)CCCCCCCCCCCCCCCCC(=O)O)C(=O)O)CSSC[C@@H](C(=O)O)NC(=O)CNC(=O)[C@H](CC(C)C)NC(=O)CNC(=O)[C@H](CO)NC(=O)[C@H](CC(C)C)NC(=O)[C@H](CO)NC(=O)CNC1=O [compound 1240] ({C18 diacid-γGlu-AEEA-AEEA}-YHGAQEKGLSKGCFGLPLDRIGSLSGLGC-OH; disulfide 13-29; C-terminus assumed) | 11.2% |
|  | CC[C@H](C)[C@@H]1NC(=O)[C@H](CCCNC(=N)N)NC(=O)[C@H](CC(=O)O)NC(=O)[C@H](CC(C)C)NC(=O)[C@@H]2CCCN2C(=O)[C@H](CC(C)C)NC(=O)CNC(=O)[C@H](Cc2ccccc2)NC(=O)[C@@H](NC(=O)CNC(=O)[C@H](CO)NC(=O)[C@H](CO)NC(=O)[C@H](CC(C)C)NC(=O)CNC(=O)[C@H](CCCCN)NC(=O)[C@H](CCC(=O)O)NC(=O)[C@H](CCC(N)=O)NC(=O)[C@H](C)NC(=O)CNC(=O)[C@H](Cc2c[nH]cn2)NC(=O)[C@H](Cc2ccc(O)cc2)NC(=O)COCCOCCNC(=O)COCCOCCNC(=O)CC[C@H](NC(=O)CCCCCCCCCCCCCCCCC(=O)O)C(=O)O)CSSC[C@@H](C(=O)O)NC(=O)CNC(=O)[C@H](CC(C)C)NC(=O)CNC(=O)[C@H](CO)NC(=O)[C@H](CC(C)C)NC(=O)[C@H](CO)NC(=O)CNC1=O [compound 1242] ({C18 diacid-γGlu-AEEA-AEEA}-YHGAQEKGLSSGCFGLPLDRIGSLSGLGC-OH; disulfide 13-29) | 5.4% |
|  | CC[C@H](C)[C@@H]1NC(=O)[C@H](CCCNC(=N)N)NC(=O)[C@H](CC(=O)O)NC(=O)[C@H](CC(C)C)NC(=O)[C@@H]2CCCN2C(=O)[C@H](CC(C)C)NC(=O)CNC(=O)[C@H](Cc2ccccc2)NC(=O)[C@@H](NC(=O)CNC(=O)[C@H](CCC(N)=O)NC(=O)[C@H](CO)NC(=O)[C@H](CC(C)C)NC(=O)CNC(=O)[C@H](CCCCN)NC(=O)[C@H](CCCCN)NC(=O)[C@H](CCC(=O)O)NC(=O)[C@H](C)NC(=O)CNC(=O)[C@H](CCC(=O)O)NC(=O)[C@H](Cc2ccc(O)cc2)NC(=O)COCCOCCNC(=O)COCCOCCNC(=O)CC[C@H](NC(=O)CCCCCCCCCCCCCCCCC(=O)O)C(=O)O)CSSC[C@@H](C(=O)O)NC(=O)CNC(=O)[C@H](CC(C)C)NC(=O)CNC(=O)[C@H](CO)NC(=O)[C@H](CC(C)C)NC(=O)[C@H](CO)NC(=O)CNC1=O [compound 1274] ({C18 diacid-γGlu-AEEA-AEEA}-YEGAEKKGLSQGCFGLPLDRIGSLSGLGC-OH; disulfide 13-29) | 13.2% |
|  | CC[C@H](C)[C@@H]1NC(=O)[C@H](CCCNC(=N)N)NC(=O)[C@H](CC(=O)O)NC(=O)[C@H](CC(C)C)NC(=O)[C@@H]2CCCN2C(=O)[C@H](CC(C)C)NC(=O)CNC(=O)[C@H](Cc2ccccc2)NC(=O)[C@@H](NC(=O)CNC(=O)[C@H](CO)NC(=O)[C@H](CO)NC(=O)[C@H](CC(C)C)NC(=O)CNC(=O)[C@H](CCCCN)NC(=O)[C@H](CCC(=O)O)NC(=O)[C@H](CCC(N)=O)NC(=O)[C@H](C)NC(=O)CNC(=O)[C@H](CCC(=O)O)NC(=O)COCCOCCNC(=O)COCCOCCNC(=O)CC[C@H](NC(=O)CCCCCCCCCCCCCCCCC(=O)O)C(=O)O)CSSC[C@@H](C(=O)O)NC(=O)CNC(=O)[C@H](CC(C)C)NC(=O)CNC(=O)[C@H](CO)NC(=O)[C@H](CC(C)C)NC(=O)[C@H](CO)NC(=O)CNC1=O [compound 1287] ({C18 diacid-γGlu-AEEA-AEEA}-EGAQEKGLSSGCFGLPLDRIGSLSGLGC-OH; disulfide 12-28) | 2.9% |
